How the values were obtained:
DLD1 NRF2-GOF [1] = assay: drug sensitivity score (DSS) cytotoxicity (DSS score); higher = more toxic; extreme values may be limits of the assay; settings: 72 h; CellTox Green cytotoxicity
Method in brief: (§1)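 Isogenic DLD1 colorectal cancer cells, either NRF2 wild-type or CRISPR gain-of-function, were grown in DMEM with 10% FBS. They were exposed in 384-well plates to library compounds at 5 concentrations spanning a 10,000-fold range. After 72 h, cytotoxicity was read by CellTox Green on a Pherastar FS reader and normalised to vehicle wells and 100-μM positive-control wells. TC50 and drug sensitivity score (a normalised area under the curve) came from logistic dose-response fits.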

DLD1 NRF2-WT [2] = assay: as above; settings: 72 h; CellTox Green cytotoxicity
Method in brief: as §1

DLD1 NRF2-GOF [3] = assay: drug sensitivity score (DSS) viability (DSS score); higher = more sensitive; extreme values may be limits of the assay; settings: 72 h; CellTiter-Glo viability
Method in brief: (§2)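 DLD1 colorectal cancer cells, an isogenic pair either NRF2 wild-type or carrying a CRISPR gain-of-function, were cultured in DMEM with 10% FBS and treated in 384-well plates with library compounds at 5 concentrations across a 10,000-fold range. CellTiter-Glo viability was read on a Pherastar FS reader after 72 h and normalised to vehicle wells and 100-μM positive-control wells. Four-parameter logistic dose-response fits were applied. EC50 and drug sensitivity score, a normalised area under the curve, were taken from these fits.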

DLD1 NRF2-WT [4] = assay: as above; settings: 72 h; CellTiter-Glo viability
Method in brief: as §2

DLD1 NRF2-GOF [5] = assay: TC50 cytotoxicity; higher = less toxic; settings: 72 h; CellTox Green cytotoxicity
Method in brief: as §1

DLD1 NRF2-WT [6] = assay: TC50 cytotoxicity; higher = less toxic; settings: 72 h; CellTox Green cytotoxicity
Method in brief: as §1

DLD1 NRF2-GOF [7] = settings: 72 h; CellTiter-Glo viability
Method in brief: as §2

DLD1 NRF2-WT [8] = settings: 72 h; CellTiter-Glo viability
Method in brief: as §2

Structure (SMILES)	drug sensitivity score (DLD1 NRF2-GOF [1])	drug sensitivity score (DLD1 NRF2-WT [2])	drug sensitivity score (DLD1 NRF2-GOF [3])	drug sensitivity score (DLD1 NRF2-WT [4])	TC50 cytotoxicity (DLD1 NRF2-GOF [5]) [µM]	TC50 cytotoxicity (DLD1 NRF2-WT [6]) [µM]	EC50 viability (DLD1 NRF2-GOF [7]) [µM]	EC50 viability (DLD1 NRF2-WT [8]) [µM]
Cc1cn(-c2cc(NC(=O)c3ccc(C)c(Nc4nccc(-c5cccnc5)n4)c3)cc(C(F)(F)F)c2)cn1 [Nilotinib]	0	0	4	2.5	> 10	> 10	0.983	> 10
COC(=O)c1ccc2c(c1)NC(=O)/C2=C(\Nc1ccc(N(C)C(=O)CN2CCN(C)CC2)cc1)c1ccccc1 [Nintedanib]	0	0.5	0	0.5	> 10	> 10	> 10	> 10
CC(O)c1cc(C(=O)N[C@@H](C)Cn2ccc(-c3ccc(C#N)c(Cl)c3)n2)n[nH]1 (some centres undefined) [ODM-201]	0	0	0.9	0.2	> 2.5	> 2.5	> 2.5	> 2.5
CC(=O)c1cnc2ccc(-c3cc(Cl)c(O)c(Cl)c3)nc2c1N[C@H]1CC[C@H](CN(C)C)CC1 [OTS167]	3	0.6	13	12.8	> 1	> 1	0.0545	0.0707
COC(=O)C[C@](O)(CCCC(C)(C)O)C(=O)O[C@@H]1C(OC)=C[C@]23CCCN2CCc2cc4c(cc2[C@H]13)OCO4 [Omacetaxine]	8.4	10.1	26.9	27.6	0.329	0.346	0.0546	0.0519
COc1ncc(-c2ccc3nccc(-c4ccnnc4)c3c2)cc1NS(=O)(=O)c1ccc(F)cc1F [Omipalisib]	0	0	12.6	18.7	> 1	> 1	0.0253	0.0071
COC[C@H](NC(=O)c1cnc(C)s1)C(=O)N[C@@H](COC)C(=O)N[C@@H](Cc1ccccc1)C(=O)[C@@]1(C)CO1 [Oprozomib]	15.9	19.7	20.2	18.8	0.116	0.0569	0.0504	0.067
C=CC(=O)Nc1cc(Nc2nccc(-c3cn(C)c4ccccc34)n2)c(OC)cc1N(C)CCN(C)C [Osimertinib]	0	0.7	4.7	6.6	> 2.5	> 2.5	0.402	0.424
COc1ccccc1S(=O)(=O)Nc1ccc2c(c1)CN(C)C(=O)N2 [PFI-1]	0	0	0	3.2	> 30	> 30	> 30	1.94
O=C(Nc1cc(Cl)cc2c1[nH]c1cnccc12)c1cccnc1 [PS-1145]	0	0	5.2	6.2	> 25	> 25	1.34	0.771
COc1cc(Br)c(Nc2nc(-c3c(C)nc4ncccn34)cs2)c(Br)c1 [PTC-209]	0	0	6.2	10.8	> 10	> 10	1.44	0.464
CC(=O)O[C@H]1C(=O)[C@@]2(C)[C@H]([C@H](OC(=O)c3ccccc3)[C@]3(O)C[C@H](OC(=O)[C@H](O)[C@@H](NC(=O)c4ccccc4)c4ccccc4)C(C)=C1C3(C)C)[C@]1(OC(C)=O)CO[C@@H]1C[C@@H]2O [Paclitaxel]	4.7	10.5	24	24.1	> 1	0.0174	0.0039	0.0032
C1=N/C2=N/c3ccc(OCCN4CCCC4)c(c3)COC/C=C/COCc3cccc(c3)C(=C1)N2 [Pacritinib]	8.6	8.1	12.6	15.1	1.8	1.98	0.855	0.511
CC(=O)c1c(C)c2cnc(Nc3ccc(N4CCNCC4)cn3)nc2n(C2CCCC2)c1=O [Palbociclib]	0	0.2	6.7	12.3	> 10	> 10	1.49	0.315
COc1ccc(COc2cc3oc(=O)c4cc(C(C)O)ccc4c3cc2OC)cc1 (centres undefined) [Palomid-529]	0	0	0.6	0	> 10	> 10	> 10	> 10
Cc1[nH]c2ccccc2c1CCNCc1ccc(/C=C/C(=O)NO)cc1 [Panobinostat]	1.1	6.6	11.2	13.3	> 1	0.124	0.0701	0.0649
Cc1ccc(Nc2nccc(N(C)c3ccc4c(C)n(C)nc4c3)n2)cc1S(N)(=O)=O [Pazopanib]	0	0	10.2	6.9	> 10	> 10	0.0444	0.0531
FC(F)(F)c1ccc(CNc2ccc(Cc3c[nH]c4ncc(Cl)cc34)cn2)cn1 [Pexidartinib]	0	0	0.9	0	> 10	> 10	> 10	> 10
CS(=O)(=O)N1CCN(Cc2cc3nc(-c4cccc5[nH]ncc45)nc(N4CCOCC4)c3s2)CC1 [Pictilisib]	0	0.1	5.8	6.8	> 10	> 10	1.59	1
CC[C@@H]1C(=O)OC[C@@H]1Cc1cncn1C [Pilocarpine]	0	0	0.1	0	> 40	> 40	> 40	> 40
Cc1ccc(=O)n(-c2ccccc2)c1 [Pirfenidone]	0	0	0	0	> 10	> 10	> 10	> 10
NCCNc1ccc(NCCN)c2c1C(=O)c1ccncc1C2=O [Pixantrone]	0	0	4.9	4	> 10	> 10	1.11	1.68

Structure (SMILES)	drug sensitivity score (DLD1 NRF2-GOF [1])	drug sensitivity score (DLD1 NRF2-WT [2])	drug sensitivity score (DLD1 NRF2-GOF [3])	drug sensitivity score (DLD1 NRF2-WT [4])	TC50 cytotoxicity (DLD1 NRF2-GOF [5]) [µM]	TC50 cytotoxicity (DLD1 NRF2-WT [6]) [µM]	EC50 viability (DLD1 NRF2-GOF [7]) [µM]	EC50 viability (DLD1 NRF2-WT [8]) [µM]
C=CC(=O)N1CCC(Oc2cc3c(Nc4ccc(Cl)c(Cl)c4F)ncnc3cc2OC)CC1 [Poziotinib]	0	0	2.7	3.6	> 1	> 1	0.258	0.203
CCCCc1nc2cc(/C=C/C(=O)NO)ccc2n1CCN(CC)CC [Pracinostat]	1.6	4	9.1	11.9	> 10	1.48	0.929	0.795
COc1cccc(OCCCN)c1-c1cc(Nc2cnc(C#N)cn2)n[nH]1 [Prexasertib]	3.6	3.8	13.5	12.1	0.931	1.49	0.365	0.737
COC(=O)c1ccc([C@H]2c3[nH]c4ccccc4c3C[C@H](C(=O)OC)N2C(=O)CCl)cc1 [RSL3]	0	0	9	6.6	> 10	> 10	0.0174	> 10
Cc1cnc(NC(=O)Nc2cc(Br)c(C)cc2OC[C@@H]2CNCCO2)cn1 [Rabusertib]	0	0	1	0.3	> 1	> 1	> 1	> 1
Cc1cn(-c2cc(NC(=O)c3ccc(C)c(Nc4nccc(-c5cnccn5)n4)c3)cc(C(F)(F)F)c2)cn1 [Radotinib]	0.3	0	0.4	0	> 10	> 10	> 10	> 10
CC(C)(C)Cn1c(N)nc2ccc(-c3[nH]c(C(C)(C)C)nc3-c3ccc(F)cc3)nc21 [Ralimetinib]	0	0	2.9	4.3	> 10	> 10	2.83	1.94
Cc1nc(=O)c2cc(CN(C)c3ccc(C(=O)N[C@@H](CCC(=O)O)C(=O)O)s3)ccc2[nH]1 [Raltitrexed]	0	0	18	16	> 1	> 1	0.0083	0.0147
CNC(=O)c1cc(Oc2ccc(NC(=O)Nc3ccc(Cl)c(C(F)(F)F)c3)c(F)c2)ccn1 [Regorafenib]	0	0	2.4	3.8	> 10	> 10	3.71	3.3
CCOCc1nc2c(N)nc3ccccc3c2n1CC(C)(C)O [Resiquimod]	0	0	0.6	0.7	> 10	> 10	> 10	> 10
CN(C)C(=O)c1cc2cnc(Nc3ccc(N4CCNCC4)cn3)nc2n1C1CCCC1 [Ribociclib]	0	0	6.8	8.2	> 10	> 10	0.169	0.46
C=CC(=O)Nc1cccc(Nc2nc(Nc3ccc(N4CCN(C(C)=O)CC4)cc3OC)ncc2C(F)(F)F)c1 [Rociletinib]	0.7	1.5	3.1	5.3	> 10	3.15	3.69	2.44
CN(C)C[C@@H]1CCn2cc(c3ccccc32)C2=C(C(=O)NC2=O)c2cn(c3ccccc23)CCO1 [Ruboxistaurin]	0.2	0	5	5.1	> 10	> 10	2	2.08
CC(C)(C)c1cnc(CSc2cnc(NC(=O)C3CCNCC3)s2)o1 [SNS-032]	0	0.8	17.5	23.1	> 10	> 10	0.223	0.0984
CN1CCN(CCOc2cc(OC3CCOCC3)c3c(Nc4c(Cl)ccc5c4OCO5)ncnc3c2)CC1 [Saracatinib]	0.1	0.7	0.3	2.4	> 10	> 10	> 10	2.48
O=C(/C=C\n1cnc(-c2cc(C(F)(F)F)cc(C(F)(F)F)c2)n1)NNc1cnccn1 [Selinexor]	2.5	1.5	15.5	16.7	> 10	> 10	0.323	0.202
CN1CCN(C(=O)c2ccc3cc(CCNc4ncnc5ccc(C#N)cc45)ccc3c2)CC1 [Senexin B]	0	0	3.6	3.5	> 1	> 1	0.114	0.103
COCC[n+]1c2c(n(Cc3cnccn3)c1C)C(=O)c1ccccc1C2=O [Sepantronium bromide]	30.9	21.7	41.8	38.7	0.0275	0.0287	0.0037	0.0068
O=C(O)c1ccc2c(c1)nc(Nc1cccc(Cl)c1)c1ccncc12 [Silmitasertib]	0	0.3	2.8	2.1	> 10	> 10	1.52	3.6
CN1CCN(c2nc(C3=C(c4c[nH]c5ccccc45)C(=O)NC3=O)c3ccccc3n2)CC1 [Sotrastaurin]	0	0	0	1.2	> 10	> 10	> 10	> 10
C=CC(=O)Nc1cccc(Nc2nc(Nc3ccc(OCCOC)cc3)ncc2F)c1 [Spebrutinib]	0	0	6.5	3.2	> 1	> 1	0.0396	0.0822

Source: the supplement of paper PMC7600603
